Measured values published in US10568873B1, “Safranal-sorafenib combination therapy for liver cancer” (United Arab Emirates University, priority 2019, dated 2020).

Key:
Assay type in all cases: in vivo, male Wistar rats
[1] = tested on: DEN-induced hepatic neoplasia in rats; assay: Serum ALT and AST biochemical analysis in DEN-induced HCC rats; settings: P<0.05, one-way ANOVA, Tukey
Protocol: (§1) A modified version of the protocol described by DePeralta et al. (2016) and Schiffer et al. (2005) was used here to establish the hepatocarcinogenesis model.
On the first 15 weeks, the control PBS group was treated with 1×PBS, whereas the experimental groups were given an intraperitoneal injection (IP) of 50 mg/kg of diethylnitrosoamine (DEN, Sigma Aldrich), a widely used chemical for inducing cancer, once a week. DEN was diluted with 1×PBS. Following a one-week break (week 16), the next three weeks (weeks 17 to 19) of treatment commenced. All drugs were administrated by oral gavage. […] For the HCC+sorafenib group, the drug (Carbosynth Limited) was administered at a dose of 10 mg/kg, five days a week. For the HCC+safranal group, the drug (Sigma Aldrich) was administered at a dose of 200 mg/kg, five days a week. For the HCC+safranal+sorafenib group, the drugs were administered at a dose of 200 mg/kg safranal+10 mg/kg sorafenib, five days a week. Both safranal and sorafenib were diluted with 1×PBS and drops of Tween 80. […] After 24-hours from last treatment, the rats were euthanized by mild diethyl ether and dissected in equal conditions. […]
Alanine Transaminase (ALT), and Aspartate Aminotransferase (AST) assays were performed using commercial kits (Abcam), according to the protocol provided. ALT and AST activities were measured spectrophotometrically using Epoch by BioTek.

[2] = tested on: DEN-induced hepatic neoplasia in rats; assay: Liver gross examination and number of liver nodules
Protocol: as §1
On the first 15 weeks, the control PBS group was treated with 1×PBS, whereas the experimental groups were given an intraperitoneal injection (IP) of 50 mg/kg of diethylnitrosoamine (DEN, Sigma Aldrich), a widely used chemical for inducing cancer, once a week. DEN was diluted with 1×PBS. Following a one-week break (week 16), the next three weeks (weeks 17 to 19) of treatment commenced. All drugs were administrated by oral gavage. […] For the HCC+sorafenib group, the drug (Carbosynth Limited) was administered at a dose of 10 mg/kg, five days a week. For the HCC+safranal group, the drug (Sigma Aldrich) was administered at a dose of 200 mg/kg, five days a week. For the HCC+safranal+sorafenib group, the drugs were administered at a dose of 200 mg/kg safranal+10 mg/kg sorafenib, five days a week. Both safranal and sorafenib were diluted with 1×PBS and drops of Tween 80. […] After 24-hours from last treatment, the rats were euthanized by mild diethyl ether and dissected in equal conditions. Blood and whole liver were collected.

[3] = tested on: DEN-induced hepatic neoplasia in rats; assay: Histology (H&E), area of neoplastic foci (AHF); settings: H&E sections; FIG. 5; P<0.05
Protocol: as §1
(§2) On the first 15 weeks, the control PBS group was treated with 1×PBS, whereas the experimental groups were given an intraperitoneal injection (IP) of 50 mg/kg of diethylnitrosoamine (DEN, Sigma Aldrich), a widely used chemical for inducing cancer, once a week. DEN was diluted with 1×PBS. Following a one-week break (week 16), the next three weeks (weeks 17 to 19) of treatment commenced. All drugs were administrated by oral gavage. All doses were chosen according to literature (Alsaied et al., 2014; Karafakioğlu et al., 2017). For the HCC+sorafenib group, the drug (Carbosynth Limited) was administered at a dose of 10 mg/kg, five days a week. For the HCC+safranal group, the drug (Sigma Aldrich) was administered at a dose of 200 mg/kg, five days a week. For the HCC+safranal+sorafenib group, the drugs were administered at a dose of 200 mg/kg safranal+10 mg/kg sorafenib, five days a week. Both safranal and sorafenib were diluted with 1×PBS and drops of Tween 80. […] After 24-hours from last treatment, the rats were euthanized by mild diethyl ether and dissected in equal conditions. Blood and whole liver were collected. […]

[4] = tested on: DEN-induced hepatic neoplasia in rats; assay: Reticulin staining of liver sections; settings: reticulin-stained sections; FIG. 6
Protocol: as §1, §2

PCNA = assay: Western blot of proliferation-related protein PCNA in liver; settings: normalized to total protein, n=4, P<0.05, FIG. 7
Protocol: as §1
(§3) On the first 15 weeks, the control PBS group was treated with 1×PBS, whereas the experimental groups were given an intraperitoneal injection (IP) of 50 mg/kg of diethylnitrosoamine (DEN, Sigma Aldrich), a widely used chemical for inducing cancer, once a week. DEN was diluted with 1×PBS. Following a one-week break (week 16), the next three weeks (weeks 17 to 19) of treatment commenced. All drugs were administrated by oral gavage. All doses were chosen according to literature (Alsaied et al., 2014; Karafakioğlu et al., 2017). […]
(§4) One hundredth gm (10 mg) liver was homogenized using 200 μl RIPA buffer (Sigma Aldrich) mixed with 2 μl protease inhibitor and 2 μl phosphatase inhibitor (Sigma Aldrich), and centrifuged at 4° C., 15,000 rpm for 15 minutes. […] Protein concentration was measured by Pierce BCA Protein Assay Kit with Promega GloMax Discover. […] Band density and quantification was done using ImageJ (Amin et al., 2011). […]
(§5) Due to technical reasons, total protein was used in this study as the loading control instead of the other common markers like GAPDH, β-tubulin, and β-actin. […] Ten internal controls were used, and their expressions were determined using RT-PCR. […]

Cdk1, Cyclin B1, Cdc25B = assay: Western blot of cell cycle-related proteins in liver
Protocol: as §1, §3, §4, §5

[5] = tested on: Bcl-2, Bax, Pro-Caspase-9, Pro-Caspase-3, PARP; assay: Western blot of intrinsic apoptosis-related proteins in liver
Protocol: as §1
On the first 15 weeks, the control PBS group was treated with 1×PBS, whereas the experimental groups were given an intraperitoneal injection (IP) of 50 mg/kg of diethylnitrosoamine (DEN, Sigma Aldrich), a widely used chemical for inducing cancer, once a week. DEN was diluted with 1×PBS. Following a one-week break (week 16), the next three weeks (weeks 17 to 19) of treatment commenced. All drugs were administrated by oral gavage. All doses were chosen according to literature (Alsaied et al., 2014; Karafakioğlu et al., 2017). For the HCC+sorafenib group, the drug (Carbosynth Limited) was administered at a dose of 10 mg/kg, five days a week. For the HCC+safranal group, the drug (Sigma Aldrich) was administered at a dose of 200 mg/kg, five days a week. For the HCC+safranal+sorafenib group, the drugs were administered at a dose of 200 mg/kg safranal+10 mg/kg sorafenib, five days a week. Both safranal and sorafenib were diluted with 1×PBS and drops of Tween 80. […] After 24-hours from last treatment, the rats were euthanized by mild diethyl ether and dissected in equal conditions. Blood and whole liver were collected.
One hundredth gm (10 mg) liver was homogenized using 200 μl RIPA buffer (Sigma Aldrich) mixed with 2 μl protease inhibitor and 2 μl phosphatase inhibitor (Sigma Aldrich), and centrifuged at 4° C., 15,000 rpm for 15 minutes. Whole cell lysate was taken and stored at −80° C. Protein concentration was measured by Pierce BCA Protein Assay Kit with Promega GloMax Discover. A total of 35 μg of protein was loaded on a sodium dodecyl sulfate-polyacrylamide gel electrophoresis gel. […] Band density and quantification was done using ImageJ (Amin et al., 2011). […]
as §5

CC1=C(C=O)C(C)(C)CC=C1 [safranal, 2,6,6-trimethyl-1,3-cyclohexadiene-1-carboxaldehyde]
ALT levels as compared to HCC group [1]: significantly (P<0.05) decreased ALT levels
lesions comparing to treatment with sorafenib alone ([2]; FIG. 3): dramatically decreased lesions
number of liver nodules / lesions comparing to HCC animals ([2]; week 20, FIG. 2, FIG. 3): reduced lesions
area of neoplastic foci / restoration of normal liver architecture [3]: seems to enhance (P<0.05) the restoration of the normal architecture of the liver
reticular fibers' breakage and morphology comparing to HCC group [4]: reduced reticular fibers' breakage and restored their morphology
PCNA expression (PCNA): significantly downregulated PCNA
Cdk1, cyclin B1, Cdc25B decrease versus sorafenib alone (Cdk1, Cyclin B1, Cdc25B; FIG. 9): showed a greater decrease than treatment with sorafenib alone
Cdk1, cyclin B1, Cdc25B levels comparing to HCC animals (Cdk1, Cyclin B1, Cdc25B; P<0.05, FIG. 8, FIG. 9): significantly decreased their levels
expression of the anti-apoptotic protein Bcl-2 compared to HCC groups ([5]; FIG. 10, FIG. 11): significantly (P<0.05) decreased
expression of the pro-apoptotic protein Bax compared to HCC groups ([5]; FIG. 10, FIG. 11): significantly (P<0.05) increased
expression of pro-caspases-9 & 3 and whole PARP compared to HCC group ([5]; P<0.05, FIG. 12): significantly decreased
